Entries after “also recorded” stand apart in the source; their conditions may differ. Where a SMILES comes first, the peptide text is derived from it. [ ]: non-standard residue; d: D form. Nle = CCCC[C@H](N)C(=O)O
Columns and labels:
[1] = tested on: occludin cleavage by calpain (45 kDa occludin cleavage product); assay: Occludin cleavage: immunoprecipitation and immunoblot in 1HAEo- cells; type: cell-based, human; details: for Generation of occludin cleavage product in presence of inhibitor: 6 μM BAPTA/AM, 20 μM ALLN, 20 μM GM6001, 25 μM Z-DEVD-FMK
Protocol: (§1) 1HAEo-cells or SAECs were grown to confluence on 10 cm plates, stimulated with heat killed PAO1 (10^7 CFU) or P3C (15 μg/ml), and whole cell lysates made using 60 mM n-octyl-β-D-glucopyranoside (OGP) in TBS (0.1 M Tris-HCl and 0.15 M NaCl, pH 7.8) containing Complete Mini protease inhibitor tablets (Roche), 1 mM sodium orthovanadate and 100 mM sodium fluoride. Monoclonal anti-E-cadherin (BD Pharmingen), polyclonal anti-pan calpain (Santa Cruz Biotechnologies) or monoclonal anti-occludin (Invitrogen/Zymed) antibodies were used for immunoprecipitations followed by the addition of Protein G Agarose beads (Invitrogen) (Chun and Prince, 2006). Immunodetection was performed using monoclonal anti-E-cadherin, polyclonal anti-occludin, anti-pan calpain, anti-calpain 1 and anti-calpain 2 antibodies (Santa Cruz Biotechnology).
1HAEo-cells were transiently transfected with scrambled (control) or calpain 1 and 2 siRNA Smart pool oligos (Dharmacon) (FIGS. 11 and 12). Transfection was carried out using an Amaxa Nucleofector following manufacturer's instructions. Briefly, 10^6 1HAEo-cells were electroporated in 100 μl Buffer L with 1.5 μg of scrambled or siRNA oligo and transferred into pre-warmed 6 well tissue culture dishes. Cells were incubated at 37° C., 5% CO2 for 48 hours before performing experiments.

[2] = tested on: SARS-associated coronavirus; details: one isolate of the coronavirus; cited from earlier work
[3] = tested on: E-cadherin cleavage by calpain (100 kDa E-cadherin cleavage product); assay: E-cadherin cleavage: immunoblot in 1HAEo- cells; type: cell-based, human; details: airway cells, 4 hr stimulation
Protocol: as §1

[4] = tested on: occludin, E-cadherin and calpain localization in 16HBE cells; assay: Confocal imaging of junctional proteins and calpain in polarized 16HBE cells; type: cell-based, human; details: for Co-localization of calpain and E-cadherin: 1 hr stimulation; for Distribution of occludin and E-cadherin at cell junctions: 6 hr exposure
Protocol: (§2) 16HBE cells were grown on 3 μm pore size Transwell-Clear filters (Corning-Costar) with an air-liquid interface to form polarized monolayers. For confocal imaging, cells were fixed with 4% paraformaldehyde, blocked with 5% normal donkey serum and incubated at 4° C. overnight with the polyclonal pan-calpain (Santa Cruz Biotechnology), monoclonal occludin (Invitrogen/Zymed) and/or monoclonal E-cadherin (BD Pharmingen) antibodies. Alexa Fluor 594 conjugated and Alexa Fluor 488 conjugated secondary antibodies (Invitrogen/Molecular Probes) were added at room temperature for 1 h. After washing, filters were removed from Transwells using a scalpel, mounted with Vectashield with DAPI (Vector Laboratories) onto glass slides and imaged using a Zeiss LSM 510 Meta scanning confocal microscope. For biotin labeling experiments 1 mg/ml EZ-Link Sulfo-NHS-LC-Biotin was added apically for 30 min at 4° C. before fixing the cells. Alexa Fluor 555 conjugated streptavidin (Molecular Probes) was added for detection of biotin.

[5] = tested on: epithelial cell junctions of polarized 16HBE cells; assay: Biotin labeling and confocal microscopy of polarized 16HBE monolayers; type: cell-based, human; details: 4 h incubation
Protocol: as §2

[6] = tested on: polarized 16HBE cells; assay: Bacterial transmigration assay
Protocol: Polarized 16HBE cells were pretreated with media alone, heat killed PAO1 (10^7 CFU), P3C (15 μg/ml), or thapsigargin (0.1 μM) for 4 h. Live PAO1 (2×10^7 CFU) were added apically for 1 h and media from the basal compartment collected and plated on LB agar plates. Bacterial transmigration across monolayers pretreated with 0.02% EGTA was used as a positive control.

[7] = tested on: polarized 16HBE cells; assay: Transepithelial resistance and dextran permeability assays; type: cell-based, human
Protocol: Polarized 16HBE cells grown in 12 mm Transwell-Clear filters (Corning-Costar) were stimulated apically with 10^7 CFU of heat killed PAO1. Transepithelial resistance readings were taken using a Millipore resistance reader which applies a 20 μA square wave alternating current across the monolayers at 12.5 Hz. The resistance of Transwell inserts without cells was used as a baseline control. After 5 h of stimulation, Alexa Fluor 488 labeled dextran (10,000 MW) was added apically for 1 h and fluorescence in the basal compartment monitored at ex 485, em 535 with a SpectraFluor Plus fluorimeter (Tecan). As a positive control, cells were treated apically and basolaterally for 1 h with 0.02% EGTA, an extracellular Ca^2+ chelator which increases paracellular permeability by disrupting cadherin mediated cell-cell adhesion.

[8] = tested on: calpain; assay: Calpain assay with cell permeable fluorogenic calpain substrate (Boc-LM-CMAC); type: cell-based, human; details: 1HAEo- cells and SAEC
Protocol: Confluent monolayers of 1HAEo-cells or SAECs were loaded with 20 μM t-BOC-L-leucine-L-methionine amide (Boc-LM-CMAC), a calpain specific membrane permeable fluorogenic substrate. Cells were stimulated with heat killed PAO1 (10^7 CFU) or P3C (15 μg/ml) and fluorescence was quantified at ex 360 nm and em 465 nm with a Spectrafluor Plus fluorimeter (Tecan).

[9] = tested on: calpain 2 mRNA; assay: Real time PCR of calpains and calpastatin in 1HAEo- cells
[10] = tested on: NF-κB activation, IL-8 production; assay: NF-κB activation and IL-8 production in airway cells; type: cell-based; details: cells treated with BAPTA/AM to chelate intracellular Ca2+
[11] = molecular target: T1, occludin, Q16625
T1 chain: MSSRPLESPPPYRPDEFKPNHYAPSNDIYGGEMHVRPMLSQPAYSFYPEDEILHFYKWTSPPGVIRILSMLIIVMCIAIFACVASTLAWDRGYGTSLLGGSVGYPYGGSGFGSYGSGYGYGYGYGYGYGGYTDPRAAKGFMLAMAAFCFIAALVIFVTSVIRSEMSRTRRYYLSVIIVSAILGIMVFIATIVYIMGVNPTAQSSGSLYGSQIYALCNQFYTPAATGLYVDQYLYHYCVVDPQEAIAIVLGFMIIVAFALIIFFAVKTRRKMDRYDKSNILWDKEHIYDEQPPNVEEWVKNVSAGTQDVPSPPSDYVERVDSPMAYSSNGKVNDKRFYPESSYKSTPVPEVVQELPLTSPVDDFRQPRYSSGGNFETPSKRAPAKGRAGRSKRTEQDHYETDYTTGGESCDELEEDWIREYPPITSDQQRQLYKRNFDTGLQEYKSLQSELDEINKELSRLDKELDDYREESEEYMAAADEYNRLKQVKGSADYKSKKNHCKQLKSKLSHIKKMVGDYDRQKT

[12] = molecular target: T2, E-cadherin, P12830
T2 chain: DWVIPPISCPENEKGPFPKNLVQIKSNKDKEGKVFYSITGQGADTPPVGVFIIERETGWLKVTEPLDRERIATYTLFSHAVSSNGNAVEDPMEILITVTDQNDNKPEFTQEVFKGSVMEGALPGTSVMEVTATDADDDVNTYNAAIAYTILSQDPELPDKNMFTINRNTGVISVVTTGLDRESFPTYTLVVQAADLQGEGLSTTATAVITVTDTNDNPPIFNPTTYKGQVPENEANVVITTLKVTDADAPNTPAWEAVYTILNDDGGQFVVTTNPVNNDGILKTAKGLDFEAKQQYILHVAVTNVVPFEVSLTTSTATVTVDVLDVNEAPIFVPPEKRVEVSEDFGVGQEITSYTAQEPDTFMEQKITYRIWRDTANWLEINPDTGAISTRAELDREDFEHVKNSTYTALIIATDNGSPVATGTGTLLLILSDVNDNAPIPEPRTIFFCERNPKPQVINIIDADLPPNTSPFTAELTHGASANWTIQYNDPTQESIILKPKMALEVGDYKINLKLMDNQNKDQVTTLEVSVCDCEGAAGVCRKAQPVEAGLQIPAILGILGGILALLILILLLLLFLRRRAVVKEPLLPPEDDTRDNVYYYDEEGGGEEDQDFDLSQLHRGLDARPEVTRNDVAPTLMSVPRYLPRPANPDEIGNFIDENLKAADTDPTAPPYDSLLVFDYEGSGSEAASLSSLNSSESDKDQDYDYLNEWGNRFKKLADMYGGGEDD

COC(=O)CC[C@H](NC(=O)[C@H](CC(=O)OC)NC(=O)OCc1ccccc1)C(=O)N[C@H](C(=O)N[C@@H](CC(=O)OC)C(=O)CF)C(C)C [Z-DEVD-FMK]
Generation of occludin cleavage product in presence of inhibitor [1]: neither the general matrix metalloproteinase inhibitor GM6001 nor the caspase inhibitor Z-DEVD-FMK blocked

NC(=O)c1ncn([C@@H]2O[C@H](CO)[C@@H](O)[C@H]2O)n1 [Ribavirin]
Virus growth or cell-to-cell spread [2]: does not inhibit

C/C=C(/C)C(=O)O[C@H]1C(C)=C2[C@H]([C@@H]1OC(=O)CCCCCCC)[C@@](C)(OC(C)=O)C[C@H](OC(=O)CCC)[C@@]1(O)[C@H]2OC(=O)[C@@]1(C)O [thapsigargin]
100 kDa E-cadherin cleavage product after stimulation [3]: generation of a 100 kDa E-cadherin cleavage product
Co-localization of calpain and E-cadherin [4]: increased; also recorded: induced mobilization and co-localization of calpain with E-cadherin
Penetration of biotin between cells of polarized monolayer [5]: resulted in the penetration of biotin; also recorded: increase in accessibility of the junctions to biotin

Pam3Cys-Ser-Lys4 [P3C]
45 kDa occludin cleavage product after stimulation ([1]; 1HAEo- and SAEC, 1 hour post stimulation): readily identified
100 kDa E-cadherin cleavage product after stimulation [3]: generation of a 100 kDa E-cadherin cleavage product
Bacterial invasion across the monolayer [6]: no changes
Transepithelial resistance [7]: no changes
Calpain activity after exposure to the stimulus [8]: significantly increased; also recorded: sufficient to activate calpain
Calpain activity after exposure to the stimulus ([8]; listed as Pam3Cys): activates calpain 2
Co-localization of calpain and E-cadherin [4]: increased; also recorded: co-localizing with E-cadherin
Co-localization of calpain and occludin ([4]; 1 h stimulation): Increased co-localization; also recorded: co-localized with membrane-associated occludin; also recorded: Increased colocalization
Distribution of occludin and E-cadherin at cell junctions [4]: dramatic loss; also recorded: altered
Distribution of occludin and E-cadherin at cell junctions ([4]; listed as PC3): altered
Transcription of calpain 2 [9]: increased
Penetration of biotin between cells of polarized monolayer [5]: resulted in the penetration of biotin; also recorded: increase in accessibility of the junctions to biotin

CNC(=O)[C@H](Cc1c[nH]c2ccccc12)NC(=O)[C@@H](CC(=O)NO)CC(C)C [GM6001]
Generation of occludin cleavage product in presence of inhibitor [1]: neither the general matrix metalloproteinase inhibitor GM6001 nor the caspase inhibitor Z-DEVD-FMK blocked

CCCC[C@@H](C=O)NC(=O)[C@H](CC(C)C)NC(=O)[C@H](CC(C)C)NC(C)=O [ALLN, N-acetyl-leucyl-leucyl-norleucinal] (Ac-Leu-Leu-[Nle]-aldehyde)
Generation of occludin cleavage product in presence of inhibitor [1]: blocked generation of the occludin cleavage product

CC(=O)OCOC(=O)CN(CC(=O)OCOC(C)=O)c1ccccc1OCCOc1ccccc1N(CC(=O)OCOC(C)=O)CC(=O)OCOC(C)=O [BAPTA/AM]
Distal proinflammatory signaling (NF-κB activation, IL-8 production) [10]: unable to activate distal proinflammatory signaling
Generation of occludin cleavage product in presence of inhibitor [1]: substantially decreased

B1: exogenous human calpain 1 (protein)
chain: SEEIITPVYCTGVSAQVQKQRARELGLGRHENAIKYLGQDYEQLRVRCLQSGTLFRDEAFPPVPQSLGYKDLGPNSSKTYGIKWKRPTELLSNPQFIVDGATRTDICQGALGDCWLLAAIASLTLNDTLLHRVVPHGQSFQNGYAGIFHFQLWQFGEWVDVVVDDLLPIKDGKLVFVHSAEGNEFWSALLEKAYAKVNGSYEALSGGSTSEGFEDFTGGVTEWYELRKAPSDLYQIILKALERGSLLGCSIDISSVLDMEAITFKKLVKGHAYSVTGAKQVNYRGQVVSLIRMRNPWGEVEWTGAWSDSSSEWNNVDPYERDQLRVKMEDGEFWMSFRDFMREFTRLEICNLTPDALKSRTIRKWNTTLYEGTWRRGSTAGGCRNYPATFWVNPQFKIRLDETDDPDDYGDRESGCSFVLALMQKHRRRERRFGRDMETIGFAVYEVPPELVGQPAVHLKRDFFLANASRARSEQFINLREVSTRFRLPPGEYVVVPSTFEPNKEGDFVLRFFSEKSAGTVELDDQIQANLPDEQVLSEEEIDENFKALFRQLAGEDMEISVKELRTILNRIISKHKDLRTKGFSLESCRSMVNLMDRDGNGKLGLVEFNILWNRIRNYLSIFRKFDLDKSGSMSAYEMRMAIESAGFKLNKKLYELIITRYSEPDLAVDFDNFVCCLVRLETMFRFFKTLDTDLDGVVTFDLFKWLQLTMFA
in vitro degradation (cleavage) of the immunoprecipitated protein by Ca2+-activated exogenous calpain, immunoblot [11]: exogenous calpain activated by the addition of Ca2+ degraded occludin and E-cadherin, but not claudin-1 or JAM-1
in vitro degradation (cleavage) of the immunoprecipitated protein by Ca2+-activated exogenous calpain, immunoblot [12]: exogenous calpain activated by the addition of Ca2+ degraded occludin and E-cadherin, but not claudin-1 or JAM-1
